This note sets out measurements from the supplement of paper PMC10307832.

Common to all, as to assay: relative viability (nuclei count vs DMSO), 5 days (fraction); higher = more cells survive
Compound in the test “XMD13-2 + OSI-027”: C1CC1C(=O)NC2=NNC3=C2C=CC(=C3)C4=CC(=CC=C4)C(=O)NC5CC5 [XMD13-2] + COc1cccc2cc(-c3nc([C@H]4CC[C@H](C(=O)O)CC4)n4ncnc(N)c34)[nH]c12 [OSI-027] (partner 0.5 µM)
The method in brief:
(§1)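 Lung cancer cell lines, seeded in 1536-well plates, were treated the following day by pin tool with a single drug or with five library-drug doses (not always all listed) in √10 steps on top of a fixed anchor-drug dose. Cells were fixed and nuclei stained in one step after 5 days, and nuclei were counted. Relative viability is the nuclei count for treated wells divided by that for vehicle wells, reported as medians of duplicate plates.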

Compound in the test “XMD13-2 + Tozasertib”: C1CC1C(=O)NC2=NNC3=C2C=CC(=C3)C4=CC(=CC=C4)C(=O)NC5CC5 [XMD13-2] + Cc1cc(Nc2cc(N3CCN(C)CC3)nc(Sc3ccc(NC(=O)C4CC4)cc3)n2)n[nH]1 [Tozasertib] (partner 0.1 µM)
The method, boiled down: as §1

Compound in the test “Dasatinib + Tozasertib”: Cc1nc(Nc2ncc(C(=O)Nc3c(C)cccc3Cl)s2)cc(N2CCN(CCO)CC2)n1 [Dasatinib] + Cc1cc(Nc2cc(N3CCN(C)CC3)nc(Sc3ccc(NC(=O)C4CC4)cc3)n2)n[nH]1 [Tozasertib] (partner 0.1 µM)
The method, boiled down: as §1

Compound in the test “Dasatinib + Alpelisib”: Cc1nc(Nc2ncc(C(=O)Nc3c(C)cccc3Cl)s2)cc(N2CCN(CCO)CC2)n1 [Dasatinib] + Cc1nc(NC(=O)N2CCC[C@H]2C(N)=O)sc1-c1ccnc(C(C)(C)C(F)(F)F)c1 [Alpelisib] (partner 2 µM)
The method in brief:
as §1

Regarding LOU-NH91, the relative viability in the test with XMD13-2 + OSI-027 (first compound 0.05 µM) came to 0.753; with XMD13-2 + OSI-027 (first compound 0.1581 µM), 0.716; in the test with XMD13-2 + OSI-027 (first compound 0.5 µM), 0.759; with XMD13-2 + OSI-027 (first compound 1.581 µM), 0.663; with XMD13-2 + OSI-027 (first compound 5 µM), 0.815; with XMD13-2 + Tozasertib (first compound 0.05 µM), 0.724. In addition, the relative viability with XMD13-2 + Tozasertib (first compound 0.1581 µM) came to 0.688; in the test with XMD13-2 + Tozasertib (first compound 0.5 µM) it was 0.734; with XMD13-2 + Tozasertib (first compound 1.581 µM) it was 0.644; with XMD13-2 + Tozasertib (first compound 5 µM), 0.638; in the test with Dasatinib + Tozasertib (first compound 0.005 µM), 0.721; with Dasatinib + Tozasertib (first compound 0.01581 µM), 0.652. In addition, the relative viability came to 0.637 in the test with Dasatinib + Tozasertib (first compound 0.05 µM); 0.556 with Dasatinib + Tozasertib (first compound 0.1581 µM); 0.307 with Dasatinib + Tozasertib (first compound 0.5 µM); 0.69 in the test with Dasatinib + Alpelisib (first compound 0.005 µM); 0.584 with Dasatinib + Alpelisib (first compound 0.01581 µM); 0.572 in the test with Dasatinib + Alpelisib (first compound 0.05 µM). The relative viability with Dasatinib + Alpelisib (first compound 0.1581 µM) stood at 0.441; with Dasatinib + Alpelisib (first compound 0.5 µM), 0.34.
Take SW 900: the relative viability amounted to 0.654 with XMD13-2 + OSI-027 (first compound 0.05 µM); 0.707 with XMD13-2 + OSI-027 (first compound 0.1581 µM); 0.686 with XMD13-2 + OSI-027 (first compound 0.5 µM); 0.457 with XMD13-2 + OSI-027 (first compound 1.581 µM); 0.635 with XMD13-2 + OSI-027 (first compound 5 µM); 0.62 with XMD13-2 + Tozasertib (first compound 0.05 µM). In addition, the relative viability in the test with XMD13-2 + Tozasertib (first compound 0.1581 µM) stood at 0.573; with XMD13-2 + Tozasertib (first compound 0.5 µM), 0.506; with XMD13-2 + Tozasertib (first compound 1.581 µM), 0.473; with XMD13-2 + Tozasertib (first compound 5 µM), 0.533; with Dasatinib + Tozasertib (first compound 0.005 µM), 0.609; in the test with Dasatinib + Tozasertib (first compound 0.01581 µM), 0.564. In addition, the results for the relative viability with Dasatinib + Tozasertib (first compound 0.05 µM), with Dasatinib + Tozasertib (first compound 0.1581 µM) and in the test with Dasatinib + Tozasertib (first compound 0.5 µM) were 0.607, 0.46 and 0.359, respectively.
In the case of LCLC-103H, the relative viability amounted to 0.588 with XMD13-2 + OSI-027 (first compound 0.05 µM); 0.497 with XMD13-2 + OSI-027 (first compound 0.1581 µM); 0.47 in the test with XMD13-2 + OSI-027 (first compound 0.5 µM); 0.509 with XMD13-2 + OSI-027 (first compound 1.581 µM); 0.506 with XMD13-2 + OSI-027 (first compound 5 µM); 0.542 with XMD13-2 + Tozasertib (first compound 0.05 µM). For the same cell line, the relative viability with XMD13-2 + Tozasertib (first compound 0.1581 µM) came out at 0.326; in the test with XMD13-2 + Tozasertib (first compound 0.5 µM) it was 0.492; in the test with XMD13-2 + Tozasertib (first compound 1.581 µM), 0.545; in the test with XMD13-2 + Tozasertib (first compound 5 µM) it was 0.416; with Dasatinib + Tozasertib (first compound 0.005 µM), 0.485; with Dasatinib + Tozasertib (first compound 0.01581 µM), 0.461. The relative viability stood at 0.453 with Dasatinib + Tozasertib (first compound 0.05 µM); 0.3 with Dasatinib + Tozasertib (first compound 0.1581 µM); 0.129 with Dasatinib + Tozasertib (first compound 0.5 µM); 0.978 in the test with Dasatinib + Alpelisib (first compound 0.005 µM); 1.06 in the test with Dasatinib + Alpelisib (first compound 0.01581 µM); 0.818 in the test with Dasatinib + Alpelisib (first compound 0.05 µM). Also, the values for the relative viability with Dasatinib + Alpelisib (first compound 0.1581 µM) and with Dasatinib + Alpelisib (first compound 0.5 µM) were 0.647 and 0.328, respectively.
In the case of NCI-H1915, the relative viability with XMD13-2 + OSI-027 (first compound 0.05 µM) was 0.756; in the test with XMD13-2 + OSI-027 (first compound 0.1581 µM), 0.591; with XMD13-2 + OSI-027 (first compound 0.5 µM), 0.645; with XMD13-2 + OSI-027 (first compound 1.581 µM), 0.548; with XMD13-2 + OSI-027 (first compound 5 µM) it was 0.595; with XMD13-2 + Tozasertib (first compound 0.05 µM) it was 0.48. Besides, the relative viability with XMD13-2 + Tozasertib (first compound 0.1581 µM) was found to be 0.488; with XMD13-2 + Tozasertib (first compound 0.5 µM), 0.48; with XMD13-2 + Tozasertib (first compound 1.581 µM), 0.412; with XMD13-2 + Tozasertib (first compound 5 µM), 0.335; in the test with Dasatinib + Tozasertib (first compound 0.005 µM), 0.435; with Dasatinib + Tozasertib (first compound 0.01581 µM) it was 0.372. Moreover, the relative viability with Dasatinib + Tozasertib (first compound 0.05 µM) stood at 0.301; with Dasatinib + Tozasertib (first compound 0.1581 µM), 0.173; with Dasatinib + Tozasertib (first compound 0.5 µM) it was 0.157; with Dasatinib + Alpelisib (first compound 0.005 µM), 1.01; with Dasatinib + Alpelisib (first compound 0.01581 µM), 0.979; with Dasatinib + Alpelisib (first compound 0.05 µM), 0.933. The relative viability with Dasatinib + Alpelisib (first compound 0.1581 µM) amounted to 0.395; with Dasatinib + Alpelisib (first compound 0.5 µM), 0.311.
As to IA-LM, the relative viability with Dasatinib + Alpelisib (first compound 0.005 µM) is 0.969; with Dasatinib + Alpelisib (first compound 0.01581 µM), 0.71; in the test with Dasatinib + Alpelisib (first compound 0.05 µM), 0.882; in the test with Dasatinib + Alpelisib (first compound 0.1581 µM) it was 0.84; in the test with Dasatinib + Alpelisib (first compound 0.5 µM), 0.62.
